What all share (format): cell-based
The target in data set [1] is T1, hERG (Homo sapiens, UniProt Q12809). As to the kind of experiment: Two-electrode voltage-clamp on Xenopus laevis oocytes expressing hERG. Also noted: expressed in transfected cells; host or cells: Xenopus laevis oocytes (cRNA injection). To be noted: voltage-clamped; for inhibition at 10 µM: human, Xenopus laevis oocytes expressing hERG, pH 7.5, 10 μM. The source says: (§1) Stage V–VI oocytes were isolated by partial ovariectomy from Xenopus laevis frogs (African clawed frog). Mature female frogs were purchased from CRB Xénopes (Rennes, France) and were housed in the Aquatic Facility (KU Leuven) in compliance with the regulations of the European Union (EU) concerning the welfare of laboratory animals as declared in Directive 2010/63/EU. The use of Xenopus laevis was approved by the Animal Ethics Committee of the KU Leuven (Project nr. P186/2019). After anesthetising the frogs by a 15 min submersion in 0.1% tricaine methanesulphonate (pH 7.0), the oocytes were collected. The isolated oocytes were then washed with a 1.5 mg/mL collagenase solution for 2 h to remove the follicle layer.
T1 sequence (Q12809 whole entry): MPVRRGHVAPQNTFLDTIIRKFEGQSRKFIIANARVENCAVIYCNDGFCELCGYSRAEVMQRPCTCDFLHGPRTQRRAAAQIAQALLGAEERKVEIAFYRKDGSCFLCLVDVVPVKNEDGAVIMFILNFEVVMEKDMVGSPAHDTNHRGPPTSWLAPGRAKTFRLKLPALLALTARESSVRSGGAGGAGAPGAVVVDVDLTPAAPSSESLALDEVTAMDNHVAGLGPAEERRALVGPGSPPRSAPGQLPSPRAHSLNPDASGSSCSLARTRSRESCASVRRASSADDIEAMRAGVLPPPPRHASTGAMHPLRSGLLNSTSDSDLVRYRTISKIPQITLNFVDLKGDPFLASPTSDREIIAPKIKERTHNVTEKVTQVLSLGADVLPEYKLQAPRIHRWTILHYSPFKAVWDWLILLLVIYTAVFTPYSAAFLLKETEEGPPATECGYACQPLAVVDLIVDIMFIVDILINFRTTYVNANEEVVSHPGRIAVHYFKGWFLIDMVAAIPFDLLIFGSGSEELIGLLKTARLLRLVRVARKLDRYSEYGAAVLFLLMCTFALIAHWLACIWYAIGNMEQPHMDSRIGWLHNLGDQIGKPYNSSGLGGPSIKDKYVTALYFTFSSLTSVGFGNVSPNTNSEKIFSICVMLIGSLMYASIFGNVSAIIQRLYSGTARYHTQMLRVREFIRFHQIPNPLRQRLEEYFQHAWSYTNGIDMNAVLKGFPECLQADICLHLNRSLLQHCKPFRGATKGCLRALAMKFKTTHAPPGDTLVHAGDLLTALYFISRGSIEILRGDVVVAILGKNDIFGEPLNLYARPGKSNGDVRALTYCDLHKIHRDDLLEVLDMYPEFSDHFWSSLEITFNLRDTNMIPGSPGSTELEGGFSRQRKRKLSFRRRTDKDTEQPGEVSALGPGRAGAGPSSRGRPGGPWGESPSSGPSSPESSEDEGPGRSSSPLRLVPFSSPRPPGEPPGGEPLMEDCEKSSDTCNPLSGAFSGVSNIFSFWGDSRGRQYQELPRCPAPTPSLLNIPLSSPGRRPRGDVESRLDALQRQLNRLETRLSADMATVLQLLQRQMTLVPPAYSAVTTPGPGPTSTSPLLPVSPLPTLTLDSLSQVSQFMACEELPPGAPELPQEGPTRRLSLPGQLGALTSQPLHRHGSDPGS
(§2) Ion channels (KV10.1 and hERG) were expressed in Xenopus laevis oocytes, by linearisation of the plasmids and subsequent in vitro transcription using a commercial T7 or SP6 mMESSAGE mMACHINE transcription kit (Ambion, Carlsbad, CA, USA). Defolliculated Xenopus oocytes were then injected with 20–50 nL of the cRNA at a concentration of 1 ng/nL using a micro-injector (Drummond Scientific1, Broomall, PA, USA). The oocytes were incubated in a solution containing (in mM): NaCl, 96; KCl, 2; CaCl2, 1.8; MgCl2, 2 and HEPES, 5 (pH 7.4), supplemented with 50 mg/L gentamycin sulphate and […]. After ex vivo translation, the ion channels are correctly inserted in the cell membrane of the oocytes.
(§3) Two-electrode voltage-clamp recordings were performed at room temperature (18–22 °C) using a Geneclamp 500 amplifier (Molecular Devices, San Jose, CA, USA) controlled by a pClamp data acquisition system (Axon Instruments1, Union City, CA, USA) and using an integrated digital TEVC amplifier controlled by HiClamp, an automated Voltage-Clamp Screening System (Multi Channel Systems MCS GmbH, Reutlingen, Germany). Whole-cell currents from oocytes were recorded 1–7 days after injection. The bath solution composition was ND96 (in mM): NaCl, 96; KCl, 2; CaCl2, 1.8; MgCl2, 2 and HEPES, 5 (pH 7.5). Voltage and current electrodes were filled with a 3 M solution of KCl in H2O. Resistances of both electrodes were kept between 0.5 and 1.5 MΩ. The elicited Kv10.1 and hERG currents were filtered at 0.5 kHz and sampled at 2 kHz using a four-pole low-pass Bessel filter. Leak subtraction was performed using a p/4 protocol. Starting from a holding potential of −90 mV, currents for Kv10.1 were evoked by 1 s depolarizing pulses to 0 mV and currents for hERG were evoked by 2.5 s depolarizing prepulses to +40 mV, followed by hyperpolarizing pulses to −120 mV for 2.5 s. The concentration dependency of all compounds was assessed by measuring the current inhibition in the presence of increasing compound concentrations. To this end, a stock solution of the compounds was prepared in 100% DMSO for the sake of solubility. From this stock solution, adequate dilutions with a maximum of 0.5% DMSO were made for testing. The data of the concentration–response curves were fitted with the Hill equation: y = 100/{1 + (IC50/[compound])^h}, where y is the amplitude of the compound- induced effect, IC50 is the compound concentration at half-maximal efficacy, (compound) is the compound concentration, and h is the Hill coefficient.
(§4) All electrophysiological data are presented as means ± SEM of n ≥ 3 independent experiments unless otherwise indicated. Oocyte data were analysed using pClamp Clampfit 10.4 (Molecular Devices, Downingtown, PA, USA) and OriginPro 9 (Originlab, Northampton, MA, USA) or GraphPad Prism 8 software (GraphPad Software, Inc., San Diego, CA, USA). Patch-clamp data analysis was performed using FitMaster (HEKA Electronics), IgorPro (Wavemetrics, Inc., Lake Oswego, OR, USA) and GraphPad Prism 9 (GraphPad Software, Inc., San Diego, CA, USA). The Dunnett test and one-way ANOVA were performed to calculate the significance of the induced inhibition compared to the control (p < 0.05).
On the technique in general: In two-electrode clamp one electrode senses voltage and the other passes current.

In the next data set the target is T2, KV10.1 (Homo sapiens, UniProt O95259).
T2 construct: expressed in transfected cells; host or cells: Xenopus laevis oocytes (cRNA injection)
T2 sequence (O95259 1-989): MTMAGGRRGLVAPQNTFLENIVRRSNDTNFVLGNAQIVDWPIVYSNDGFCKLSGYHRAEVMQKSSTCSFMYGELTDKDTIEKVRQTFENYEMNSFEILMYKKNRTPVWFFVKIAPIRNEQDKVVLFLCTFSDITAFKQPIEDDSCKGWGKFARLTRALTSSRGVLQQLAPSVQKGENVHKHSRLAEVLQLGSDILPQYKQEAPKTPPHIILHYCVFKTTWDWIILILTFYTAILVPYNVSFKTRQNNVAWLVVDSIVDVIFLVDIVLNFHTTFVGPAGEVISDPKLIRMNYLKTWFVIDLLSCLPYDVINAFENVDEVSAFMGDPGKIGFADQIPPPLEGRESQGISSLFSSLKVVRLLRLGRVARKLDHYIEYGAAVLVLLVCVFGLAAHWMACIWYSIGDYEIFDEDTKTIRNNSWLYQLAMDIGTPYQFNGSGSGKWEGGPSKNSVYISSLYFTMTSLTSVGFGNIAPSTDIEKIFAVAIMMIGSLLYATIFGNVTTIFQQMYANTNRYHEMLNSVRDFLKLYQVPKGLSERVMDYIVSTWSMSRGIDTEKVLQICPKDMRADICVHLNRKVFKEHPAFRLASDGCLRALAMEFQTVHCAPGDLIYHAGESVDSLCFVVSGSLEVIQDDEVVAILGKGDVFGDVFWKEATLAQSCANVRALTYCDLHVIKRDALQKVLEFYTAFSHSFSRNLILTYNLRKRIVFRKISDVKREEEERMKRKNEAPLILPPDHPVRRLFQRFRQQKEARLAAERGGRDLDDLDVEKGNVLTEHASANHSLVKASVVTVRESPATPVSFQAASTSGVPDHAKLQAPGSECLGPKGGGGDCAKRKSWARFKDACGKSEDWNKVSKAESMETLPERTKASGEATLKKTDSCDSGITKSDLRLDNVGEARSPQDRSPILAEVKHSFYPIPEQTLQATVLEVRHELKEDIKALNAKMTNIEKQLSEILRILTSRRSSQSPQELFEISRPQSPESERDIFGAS
As to the kind of experiment: Two-electrode voltage-clamp on Xenopus laevis oocytes expressing KV10.1. To be noted: voltage-clamped.
Excerpt: as §1, §2, §3, §4

The target of data set [2] is T1, hERG. As to the kind of experiment: Whole-cell patch-clamp, hERG inhibition. Details: expressed in transfected cells. To be noted: dose–response fit. In general terms: In patch-clamp work, channel activity is measured electrically.

Several values for one entry are separate records, joined by “and”; a condition that tells them apart may be missing. Identical values can stand only once.

As usually defined, the inhibition is the relative decrease from the control value, in per cent. The term IC50 denotes the concentration needed to halve the response being measured. Turning to `CCN(CC)CCOc1ccc(Nc2ccc(C(F)(F)F)cc2[N+](=O)[O-])cc1` [Compound 17a, N-(4-(2-(Diethylamino)ethoxy)phenyl)-2-nitro-4-(trifluoromethyl)aniline], the values for the inhibition at 10 µM on hERG [1] and against KV10.1 (10 μM) were 64.5% and 63.5%, respectively. In addition, the IC50 against hERG [1] is 2.01 µM and 2 µM; against KV10.1, 3.58 µM and 3.6 µM; at hERG [2], 0.232 µM.
Take `CN(C)CCOc1ccc(Nc2ccc(C(F)(F)F)cc2[N+](=O)[O-])cc1` [Compound 18a, N-(4-(2-(Dimethylamino)ethoxy)phenyl)-2-nitro-4-(trifluoromethyl)aniline]: the inhibition at 10 µM was found to be 65.2% against hERG [1] and 41.7% against KV10.1 (10 μM). In addition, the half-maximal inhibitory concentration (IC50) on hERG [1] was 7.56 ± 0.41 µM; against KV10.1 it was 11.6 ± 0.35 µM; at hERG [2] it was 0.177 µM.
In the case of `CN(C)CCOc1c(Br)cc(Nc2ccc(C(F)(F)F)cc2[N+](=O)[O-])cc1Br` [Compound 18b, 3,5-Dibromo-4-(2-(dimethylamino)ethoxy)-N-(2-nitro-4-(trifluoromethyl)phenyl)aniline], the inhibition at 10 µM was 66.8% against hERG [1] and 26% against KV10.1 (10 μM). On hERG [2], this molecule had an IC50 of 0.0049 µM.
Turning to `O=[N+]([O-])c1cc(C(F)(F)F)ccc1Nc1ccc(OCCN2CCCC2)cc1` [Compound 19, 2-Nitro-N-(4-(2-(pyrrolidin-1-yl)ethoxy)phenyl)-4-(trifluoromethyl)aniline], the results for the inhibition at 10 µM at hERG [1] and against KV10.1 (10 μM) were 65.9% and 55.7%, respectively.
Consider `O=[N+]([O-])c1cc(C(F)(F)F)ccc1Nc1ccc(OCCN2CCCCC2)cc1` [Compound 20, 2-Nitro-N-(4-(2-(piperidin-1-yl)ethoxy)phenyl)-4-(trifluoromethyl)aniline], for which the figures for the inhibition at 10 µM against hERG [1] and against KV10.1 (10 μM) were 75.6% and 36.3%, respectively. For the same molecule, the results for the IC50 against hERG [1] and at KV10.1 were 0.59 ± 0.01 µM and 12.93 ± 0.04 µM, respectively.
For `O=[N+]([O-])c1cc(C(F)(F)F)ccc1Nc1ccc(OCCN2CCCCCC2)cc1` [Compound 21, N-(4-(2-(Azepan-1-yl)ethoxy)phenyl)-2-nitro-4-(trifluoromethyl)aniline] the same measures were 77.5 ± 5.71%, 43.4%, 1.34 ± 0.32 µM and 13.3 ± 1.89 µM.
“Methyl 2-((4-(2-hydroxy-3-morpholinopropoxy)phenyl)amino)benzoate [Compound 5e]”: at hERG [1] (10 μM), the “% of hERG inhibition at 10 μM (Xenopus laevis oocytes)” value is 37.32% ± 13.11. For the same molecule, at KV10.1 (10 μM), the “% of Kv10.1 inhibition at 10 μM (Xenopus laevis oocytes)” value is -2.17% ± 3.06.

The values above are taken from publication PMC9501377, “New Diarylamine KV10.1 Inhibitors and Their Anticancer Potential” (Pharmaceutics, 2022).
